Laboratory results taken from ChEMBL document CHEMBL5230092, “PFKFB3 inhibitors as potential anticancer agents: Mechanisms of action, current developments, and structure-activity relationships” (Eur J Med Chem, 2020).
Values belong to the compound of their own block, whether it stands above or below them.

Assays:
[1] = biological target: T1, 6-phosphofructo-2-kinase/fructose-2,6-bisphosphatase 3 (Homo sapiens, UniProt Q16875); assay: Inhibition of PFKFB3 (unknown origin)
[2] = biological target: T1, 6-phosphofructo-2-kinase/fructose-2,6-bisphosphatase 3; assay: Inhibition of full-length human PFKFB3 (1 to 520 residues) incubated for 2 hrs in presence of ATP by ADP-Glo assay
HeLa [3] = assay: Antiproliferative activity against human HeLa cells assessed as cell growth inhibition; assay type: functional
[4] = Half life in iv dosed C57BL/6 mouse by LC-MS/MS analysis; assay type: ADME, organism-based; conditions: in vivo
[5] = biological target: T1, 6-phosphofructo-2-kinase/fructose-2,6-bisphosphatase 3; assay type: cell-based, MIA PaCa-2
[6] = biological target: T1, 6-phosphofructo-2-kinase/fructose-2,6-bisphosphatase 3; assay type: cell-based, NUGC-3
[7] = biological target: T1, 6-phosphofructo-2-kinase/fructose-2,6-bisphosphatase 3; assay type: cell-based, PANC-1
HT-29 = assay: Antiproliferative activity against human HT-29 cells assessed as cell growth inhibition measured after 72 hrs by MTT assay; assay type: functional
MDA-MB-231 = assay: Antiproliferative activity against human MDA-MB-231 cells assessed as cell growth inhibition measured after 72 hrs by MTT assay; assay type: functional
[8] = biological target: T1, 6-phosphofructo-2-kinase/fructose-2,6-bisphosphatase 3; assay: Inhibition of PFKFB3 (unknown origin) at 100 uM relative to control
A549 = assay: Antiproliferative activity against human A549 cells assessed as cell growth inhibition measured after 72 hrs by MTT assay; assay type: functional
HeLa [9] = assay: Antiproliferative activity against human HeLa cells assessed as cell growth inhibition measured after 72 hrs by MTT assay; assay type: functional
[10] = biological target: T1, 6-phosphofructo-2-kinase/fructose-2,6-bisphosphatase 3; assay: Inhibition of PFKFB3 (unknown origin) by ADP-Glo luminescent assay
[11] = biological target: T1, 6-phosphofructo-2-kinase/fructose-2,6-bisphosphatase 3; assay: Inhibition of PFKFB3 (unknown origin) at 250 nM relative to control
[12] = Oral bioavailability in Sprague-Dawley rat by LC-MS/MS analysis; assay type: ADME, organism-based; conditions: in vivo
[13] = Cmax in Sprague-Dawley rat at 10 mg/kg, iv by LC-MS/MS analysis; assay type: ADME, organism-based; design: dose 10 mg/kg, route iv; conditions: in vivo
[14] = AUC in Sprague-Dawley rat at 10 mg/kg, iv by LC-MS/MS analysis; assay type: ADME, organism-based; design: dose 10 mg/kg, route iv; conditions: in vivo
[15] = Volume of distribution in Sprague-Dawley rat at 10 mg/kg, iv by LC-MS/MS analysis; assay type: ADME, organism-based; conditions: in vivo
[16] = Half life in Sprague-Dawley rat at 10 mg/kg, iv by LC-MS/MS analysis; assay type: ADME, organism-based; conditions: in vivo
[17] = biological target: T1, 6-phosphofructo-2-kinase/fructose-2,6-bisphosphatase 3; assay: Binding affinity to PFKFB3 (unknown origin) by MST assay
[18] = Oral bioavailability in Beagle dog by LC-MS/MS analysis; assay type: ADME, organism-based, Canis lupus familiaris; conditions: in vivo
[19] = Half life in Beagle dog at 6 mg/kg, iv by LC-MS/MS analysis; assay type: ADME, organism-based, Canis lupus familiaris; conditions: in vivo
[20] = AUC in Beagle dog at 6 mg/kg, iv by LC-MS/MS analysis; assay type: ADME, organism-based, Canis lupus familiaris; design: dose 6 mg/kg, route iv; conditions: in vivo
[21] = AUC in BALBc mouse at 10 mg/kg, iv by LC-MS/MS analysis; assay type: ADME, organism-based; design: dose 10 mg/kg, route iv; conditions: BALB/c, in vivo
[22] = Oral bioavailability in BALBc mouse by LC-MS/MS analysis; assay type: ADME, organism-based; conditions: BALB/c, in vivo
[23] = Half life in BALBc mouse at 10 mg/kg, iv by LC-MS/MS analysis; assay type: ADME, organism-based; conditions: BALB/c, in vivo
[24] = Cytotoxicity against human Epithelial cell assessed as cell growth inhibition; assay type: toxicity, cell-based; conditions: epithelial cells
[25] = Metabolic stability in human liver microsomes assessed as clearance; assay type: ADME, Microsome; conditions: read-out: CLH
[26] = Metabolic stability in mouse liver microsomes assessed as clearance; assay type: ADME, Microsome; conditions: read-out: CLH
[27] = biological target: 6-phosphofructo-2-kinase/fructose-2,6-bisphosphatase 1 (Homo sapiens) (UniProt P16118); assay: Inhibition of PFKFB1 (unknown origin) at 5.94 uM relative to control
[28] = biological target: 6-phosphofructo-2-kinase/fructose-2,6-bisphosphatase 4 (Homo sapiens) (UniProt Q16877); assay: Inhibition of PFKFB4 (unknown origin) at 5.94 uM relative to control
[29] = biological target: 6-phosphofructo-2-kinase/fructose-2,6-bisphosphatase 2 (Homo sapiens) (UniProt O60825); assay: Inhibition of PFKFB2 (unknown origin) at 5.94 uM relative to control
[30] = biological target: T1, 6-phosphofructo-2-kinase/fructose-2,6-bisphosphatase 3; assay: Inhibition of PFKFB3 (unknown origin) by UV-vis spectrophotometry
[31] = Toxicity in Sprague-Dawley rat assessed as maximum tolerated dose; conditions: in vivo
[32] = Clearance in BALB/c mouse at 5 mg/kg, iv by LC-MS/MS analysis; assay type: ADME, organism-based; conditions: in vivo
[33] = Half life in BALB/c mouse at 5 mg/kg, iv by LC-MS/MS analysis; assay type: ADME, organism-based; conditions: in vivo
[34] = Metabolic stability in human liver microsomes; assay type: ADME, Microsome
[35] = AUC in BALB/c mouse at 5 mg/kg, iv by LC-MS/MS analysis; assay type: ADME, organism-based; design: dose 5 mg/kg, route iv; conditions: in vivo
[36] = biological target: T1, 6-phosphofructo-2-kinase/fructose-2,6-bisphosphatase 3; assay: Inhibition of PFKFB3 (unknown origin) incubated for 90 mins by ADP-Glo luminescent assay

T1 sequence (Q16875 whole entry, the tested form may be a part): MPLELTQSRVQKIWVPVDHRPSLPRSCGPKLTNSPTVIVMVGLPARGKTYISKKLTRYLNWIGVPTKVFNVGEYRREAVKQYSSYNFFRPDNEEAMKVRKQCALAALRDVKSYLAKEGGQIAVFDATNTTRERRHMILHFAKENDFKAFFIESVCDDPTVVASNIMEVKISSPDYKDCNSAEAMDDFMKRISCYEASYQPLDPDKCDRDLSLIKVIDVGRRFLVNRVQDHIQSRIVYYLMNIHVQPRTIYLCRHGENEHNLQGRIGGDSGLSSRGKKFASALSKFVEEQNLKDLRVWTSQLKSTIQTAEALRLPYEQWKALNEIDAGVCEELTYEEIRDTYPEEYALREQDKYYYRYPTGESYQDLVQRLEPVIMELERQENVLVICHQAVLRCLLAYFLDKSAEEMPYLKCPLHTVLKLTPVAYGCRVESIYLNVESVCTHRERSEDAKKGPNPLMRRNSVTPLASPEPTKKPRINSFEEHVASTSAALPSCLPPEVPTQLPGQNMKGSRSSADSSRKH
Chain of 6-phosphofructo-2-kinase/fructose-2,6-bisphosphatase 4 (Homo sapiens) (Q16877 whole entry, looked up): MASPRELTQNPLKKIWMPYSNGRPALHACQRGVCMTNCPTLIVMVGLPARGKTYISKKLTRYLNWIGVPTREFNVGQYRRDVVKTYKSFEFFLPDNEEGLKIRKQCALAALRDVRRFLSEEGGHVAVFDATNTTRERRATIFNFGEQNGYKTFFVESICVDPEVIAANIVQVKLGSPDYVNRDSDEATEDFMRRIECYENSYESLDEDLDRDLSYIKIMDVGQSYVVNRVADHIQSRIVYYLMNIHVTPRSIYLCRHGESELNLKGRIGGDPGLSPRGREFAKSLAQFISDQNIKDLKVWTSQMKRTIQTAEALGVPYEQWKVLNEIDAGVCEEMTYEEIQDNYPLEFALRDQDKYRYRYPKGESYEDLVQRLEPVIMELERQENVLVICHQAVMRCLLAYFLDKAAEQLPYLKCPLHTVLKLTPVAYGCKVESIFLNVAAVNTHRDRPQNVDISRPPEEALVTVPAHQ
Chain of 6-phosphofructo-2-kinase/fructose-2,6-bisphosphatase 2 (Homo sapiens) (O60825 2-505 limits assumed): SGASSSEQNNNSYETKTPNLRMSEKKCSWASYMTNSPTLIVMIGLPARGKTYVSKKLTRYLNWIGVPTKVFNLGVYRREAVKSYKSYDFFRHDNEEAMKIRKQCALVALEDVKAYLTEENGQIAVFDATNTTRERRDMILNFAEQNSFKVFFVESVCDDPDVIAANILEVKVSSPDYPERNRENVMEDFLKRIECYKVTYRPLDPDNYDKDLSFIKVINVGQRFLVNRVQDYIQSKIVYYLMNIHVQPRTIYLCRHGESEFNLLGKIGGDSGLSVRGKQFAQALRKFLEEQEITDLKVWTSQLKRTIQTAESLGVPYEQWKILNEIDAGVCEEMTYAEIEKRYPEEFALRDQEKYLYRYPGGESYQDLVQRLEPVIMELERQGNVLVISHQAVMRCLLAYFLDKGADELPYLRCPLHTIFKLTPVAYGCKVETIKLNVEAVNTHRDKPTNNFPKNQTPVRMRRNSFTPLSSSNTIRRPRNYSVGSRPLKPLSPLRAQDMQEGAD
Chain of 6-phosphofructo-2-kinase/fructose-2,6-bisphosphatase 1 (Homo sapiens) (P16118 2-471 limits assumed): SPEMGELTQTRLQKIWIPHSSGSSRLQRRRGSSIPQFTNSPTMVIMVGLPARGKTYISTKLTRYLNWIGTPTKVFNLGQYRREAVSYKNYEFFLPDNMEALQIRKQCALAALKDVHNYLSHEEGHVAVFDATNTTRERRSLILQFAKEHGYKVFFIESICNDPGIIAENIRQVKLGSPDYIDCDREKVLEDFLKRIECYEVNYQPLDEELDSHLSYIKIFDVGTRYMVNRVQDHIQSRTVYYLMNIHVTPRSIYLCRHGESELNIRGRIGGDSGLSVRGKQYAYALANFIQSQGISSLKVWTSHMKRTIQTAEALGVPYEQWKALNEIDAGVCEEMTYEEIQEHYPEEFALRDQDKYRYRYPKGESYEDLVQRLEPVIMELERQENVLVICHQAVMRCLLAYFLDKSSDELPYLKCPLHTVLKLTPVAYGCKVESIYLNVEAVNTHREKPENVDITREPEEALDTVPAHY

SMILES: O=C(CBr)NCCOP(=O)(O)O
IC50 [1]: 2000 µM

IC50 [2]: 0.398 µM
SMILES: O=C1NC=NC2C1C=C(c1ccc(Br)cc1)N2c1ccccc1 (stereo not given)

GI50 (HeLa [3]): 2.7 µM
SMILES: CCOC(=O)c1cc2ccc(O)cc2oc1=O

half-life [4]: 5.1 h
SMILES: O=C(/C=C/c1ccc2ccccc2n1)c1ccncc1

IC50 [5]: 0.09 µM
IC50 [6]: 0.09 µM
IC50 [7]: 0.09 µM
SMILES: O=C(OCCO)c1ccc(NS(=O)(=O)c2cccc(-c3cc(F)ccc3O)c2)cc1O

GI50 (HT-29): 18 µM
GI50 (MDA-MB-231): 18 µM
inhibition [8]: 17%
GI50 (A549): 18 µM
GI50 (HeLa [9]): 15.1 µM
SMILES: Cc1ccc(/C=N/NC(=O)c2nnn(-c3nonc3N)c2-c2ccc([N+](=O)[O-])cc2)cc1

IC50 [10]: 0.2 µM
SMILES: O=C(O)c1ccc(NS(=O)(=O)c2cc(-c3ccc4c(c3)OCO4)c(Cl)s2)cc1O

IC50 [10]: 0.28 µM
SMILES: O=C(O)c1ccc(NS(=O)(=O)c2cccc(-c3ccc4ncccc4c3)c2)cc1O

inhibition [11]: 26.2%
bioavailability [12]: 38%
Cmax [13]: 16900 ng/mL
AUC [14]: 1290 ng·h/mL
Vd [15]: 2.5 L/kg
half-life [16]: 5.5 h
SMILES: Cl.O=C(c1ccncc1)c1cc2c(ccc3ccccc32)[nH]1

IC50 [2]: 0.251 µM
SMILES: COc1ccc(C2=CN(c3cccc(OC)c3)C3N=CNC(=O)C23)cc1 (stereo not given)

SMILES: CC(C)C[C@H](NC(=O)[C@H](Cc1ccccc1)NC(=O)CNC(=O)[C@H](CO)NC(=O)[C@@H](N)Cc1ccc(O)cc1)C(=O)N[C@H](C(=O)O)[C@@H](C)O
K [17]: 44 µM

IC50 [10]: 0.15 µM
SMILES: CC(C)OC(=O)c1cccc(-c2cc(S(=O)(=O)Nc3ccc(C(=O)O)c(O)c3)sc2Cl)c1

bioavailability [18]: 95%
inhibition [11]: 81.5%
half-life [19]: 5.8 h
AUC [20]: 5070 ng·h/mL
SMILES: Nc1ccc(C(=O)c2cc3c(ccc4ccccc43)[nH]2)cc1

IC50 [10]: 0.29 µM
SMILES: O=C(O)c1ccc(NS(=O)(=O)c2cc(Cl)sc2Cl)cc1O

IC50 [7]: 2.3 µM
SMILES: Cc1c(S(=O)(=O)Nc2cccc(C(=O)O)c2)sc2ccc(C(C)C)cc12

K [17]: 3 µM
SMILES: N[C@H](Cc1c[nH]c2ccccc12)C(=O)NCC(=O)N[C@H](Cc1ccc(O)cc1)C(=O)O

inhibition [11]: 13.5%
AUC [21]: 2630 ng·h/mL
bioavailability [22]: 25%
half-life [23]: 2.1 h
SMILES: O=C(c1ccccc1)c1cc2c(ccc3ccccc32)[nH]1

SMILES: O=C(/C=C/c1cccnc1)c1ccncc1
IC50 [24]: 1.4 µM

microsomal CLint [25]: 50 µL/min/mg
microsomal CLint [26]: 29 µL/min/mg
SMILES: Cn1cc([C@H](Nc2cc(-c3ccc4ccn(C)c4c3)c3nccnc3c2)c2cnnn2C)cn1

inhibition [27]: < 50%
inhibition [28]: < 50%
inhibition [29]: < 50%
SMILES: O=c1cc(-c2ccc(O)cc2)oc2c(O)c(O)c(O)c(O)c12

IC50 [2]: 0.631 µM
SMILES: O=C1NC=NC2C1C(c1ccc(Cl)cc1)=CN2c1ccccc1 (stereo not given)

IC50 [2]: 0.398 µM
SMILES: O=C1NC=NC2C1C(c1ccccc1)=CN2c1ccc(Br)cc1 (stereo not given)

K [17]: 18 µM
SMILES: CC(C)C[C@H](NC(=O)[C@H](CC(C)C)NC(=O)[C@H](Cc1ccccc1)NC(=O)[C@@H](N)CO)C(=O)N[C@@H](CCCN=C(N)N)C(N)=O

SMILES: COc1cccc([C@H](C)Nc2cc(-c3ccc4ncsc4c3)nc(C)n2)c1
IC50 [30]: < 0.5 µM

SMILES: O=C(/C=C/c1ccc2ccc(C(F)(F)F)cc2n1)c1ccncc1 [PFK-158]
MTD [31]: > 40 mg/kg
clearance [32]: 26 mL/min/kg
half-life [33]: 10.5 h
Stability [34]: 37%
AUC [35]: 3240 ng·h/mL

IC50 [36]: 0.0035 µM
SMILES: COc1ccc(C(Nc2cc(-c3ccc4ccn(C)c4c3)c3nccnc3c2)c2cnnn2C)cn1 (stereo not given)
